“And” between values parts separate entries of the source, which are not always exact repeats. Identical values can stand only once. Like-named read-outs stand apart in the source and are kept apart here.
How the values were obtained:
Pharmacokinetics in rat = assay type: in vivo, male Sprague Dawley rats; conditions: for AUC(0-t): read-out: AUC0-t
Experimental: The pharmacokinetic behavior of a representative disclosed compound, compound 3 (N-(3-(6-((3-morpholinophenyl)amino)-1H-pyrazolo[3,4-d]pyrimidin-4-yl)phenyl)acrylamide), which corresponds to compound 3 in Table I, was also evaluated in rat. A study was conducted using three male Sprague Dawley rats in each group as shown below:
The solution formulations were prepared as follows: (A) intravenous route (“i.v.”): a weighed quantity of 3 (10.45 mg) was transferred into a 10 mL clean glass vial. To this 0.231 mL of ethanol (4.5%) was added, vortexed and sonicated. To this 1.028 mL of propylene glycol (20%) was added, vortexed and sonicated. 1.543 mL of PEG400 (30%) was added, vortexed and sonicated. Finally 2.340 mL of water (45.5%) was added gradually, vortexed and sonicated to make a solution of 2 mg/mL concentration. The final solution was filtered using syringe filter (0.22 μm).; and (B) a weighed quantity of SC-1344 (27.43 mg) was transferred into a 10 mL clean glass vial. To this 0.304 mL of ethanol (4.5%) was added, vortexed and sonicated. To this 1.350 mL of propylene glycol (20%) was added, vortexed and sonicated. 2.024 mL of PEG400 (30%) was added, vortexed and sonicated. Finally 3.070 mL of water (45.5%) was added gradually, vortexed and sonicated to make a solution of 4 mg/mL concentration. The final solution was filtered using syringe filter (0.22 μm).
Bioanalysis was performed using fit-for-purpose LC-MS/MS method for the quantification of 3 in rat plasma samples. The calibration curve (CC) for the method consisted of nine non-zero calibration standards along with a double blank and zero standard samples. Study samples were analyzed along with two sets of quality control samples (6 QC samples; low, medium and high QC samples in triplicate). Briefly, the LC-MS/MS method used the following parameters: a) gradient mobile phase (Pump A: 0.1% Formic acid in water; Pump B: 100% methanol); b) XBridge C8, 50×4.6 mm, 3.5μ (Waters) column; c) 10 μL injection volume; d) 1.00 mL/min flow rate; e) 3.50 min run time; f) 10° C. sample cooler temperature; and g) 40° C. column oven temperature. The sample calibration curve was 1.02-1023 ng/mL, with an internal standard (telmisartan) at 0.2 μg/mL. Briefly, biological samples were prepared as follows: 50 μL of sample was mixed with 150 μL of internal standard, then mixture was vortexed for 5 min at 800 rpm, followed by centrifugation at 4000 rpm for 5 min; 150 μL of the sample supernatant was transferred into a separate tube and diluted with 75 μL of methanol: water (1:1), followed by injection into LC/MS/MS.
Plasma pharmacokinetic parameters were calculated using the non-compartmental analysis tool of Phoenix software (Version 6.3) and were determined from individual animals in each group. The area under the plasma concentration-time curve (AUC0-t and AUCinf), elimination half-life (T1/2), clearance (CL), volume of distribution (Vss) and Mean residence time (MRT) were calculated from intravenous group. The peak plasma concentration (Cmax), time to achieve peak plasma concentration (Tmax), AUC0-t and AUCinf, and absolute oral bioavailability (F) were calculated from the oral group.
The mean plasma concentration-time profiles are shown in FIGS. 10 and 11, i.e. the mean concentration values of the individual values obtained from each rat in the study group at the indicated time points.

[1] = target: T1, recombinant full-length human BTK kinase (Homo sapiens, UniProt Q06187); test: BTK kinase assay: ADP generation assay (ADP-Glo); assay type: biochemical; conditions: 60 nM BTK, MBP substrate, 60 min
T1 construct: recombinant full-length human BTK kinase with a (His)6 tag; (His)6; purchased Invitrogen Corporation, Carlsbad, Calif
T1 sequence (Q06187 whole entry): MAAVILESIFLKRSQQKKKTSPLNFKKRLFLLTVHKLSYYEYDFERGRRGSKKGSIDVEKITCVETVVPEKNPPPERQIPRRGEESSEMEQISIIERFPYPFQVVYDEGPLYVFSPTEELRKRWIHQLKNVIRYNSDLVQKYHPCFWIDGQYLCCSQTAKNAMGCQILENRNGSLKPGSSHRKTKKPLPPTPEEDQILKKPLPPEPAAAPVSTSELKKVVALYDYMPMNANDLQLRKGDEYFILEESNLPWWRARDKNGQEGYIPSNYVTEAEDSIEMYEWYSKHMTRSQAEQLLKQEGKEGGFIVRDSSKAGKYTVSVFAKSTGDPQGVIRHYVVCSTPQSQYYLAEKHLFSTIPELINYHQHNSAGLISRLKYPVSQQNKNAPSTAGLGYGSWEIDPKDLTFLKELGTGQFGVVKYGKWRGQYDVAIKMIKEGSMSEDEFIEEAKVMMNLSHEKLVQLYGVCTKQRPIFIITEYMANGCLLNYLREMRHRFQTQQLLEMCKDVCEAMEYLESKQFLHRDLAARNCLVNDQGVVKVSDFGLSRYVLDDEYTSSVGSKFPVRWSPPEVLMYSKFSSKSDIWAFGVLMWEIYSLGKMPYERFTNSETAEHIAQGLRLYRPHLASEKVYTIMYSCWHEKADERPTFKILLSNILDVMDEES
Experimental: The primary assay for compound inhibitory activity was the ADP generation assay described herein. Test compounds were diluted to desired concentrations in kinase reaction buffer and briefly incubated with recombinant full-length human BTK kinase with a (His)6 tag (81.3 kDa; Invitrogen Corporation, Carlsbad, Calif.). The assay as described is based on volumes used in a standard 384 well format using solid, white-wall plates. The reaction was subsequently initiated by the addition of ATP and myelin basic protein (MBP) substrate (Millipore Corporation, Waltham, Mass.). Composition of the assay reaction mixture ([…]) was: 5% v/v DMSO, 60 nM BTK, 1.6 µM ATP, and 20 µM MBP substrate. After incubation at room temperature for 60 min, […] (Promega Corporation, Madison, Wis.) was added to each well and incubated for an additional 40 minutes. The reagent stopped the kinase reaction and depleted the unconsumed ATP. Kinase Detection reagent ([…]; Promega Corporation) was then added to each well. The Kinase Detection reagent comprises reagents to convert ADP to ATP and provide luciferase and luciferin to detect ATP. Luminescence was measured on an EnVision microplate reader (PerkinElmer). The amount of luminescence from each reaction is directly correlated with BTK kinase activity. Percent inhibition and IC50 values were calculated by comparing enzyme activity in drug-treated wells to the appropriate controls.
(§1) IC50 values are determined using GraphPad Prism 5 software. The data were entered as an X-Y plot into the software as percent inhibition for each concentration of the drug. The concentration values of the drug were log transformed and the nonlinear regression was carried out using the “sigmoidal dose-response (variable slope)” option within the GraphPad software to model the data and calculate IC50 values. The IC50 values reported are the concentration of drug at which 50% inhibition was reached.
(§2) Activity (IC50) was determined in the BTK assays describe herein below, i.e. either the ADP generation assay and/or the time-resolved FRET assay, and the data are shown in Table III. The compound number corresponds to the compound numbers used in Table I. In the table below, “ADP Assay” refers to the assay which measures production of ADP resulting from use of ATP by the kinase; and “HTRF Assay” refers to the time resolved-FRET kinase assay described in the examples. Multiple values in a given column indicate the results of more than one assay for the given compound. Representative data of the type used to determine the IC50 values for the ADP assay in Table III are shown in FIG. 8 for compounds 3, 4, and 5.

BTK = BTK (Homo sapiens, UniProt Q06187); test: BTK kinase assay: time resolved-FRET (HTRF) assay; assay type: biochemical; parameters: recombinant full-length human BTK kinase with a (His)6 tag; (His)6; purchased Invitrogen Corporation, Carlsbad, Calif; conditions: 10 nM BTK, 60 μM ATP, 1 μM substrate
BTK, sequence (Q06187 whole entry): as above
Experimental: Activity of compounds was routinely confirmed using a secondary assay as described herein. The secondary assay was a time resolved-FRET kinase assay. Test compound are diluted to desired concentrations in kinase reaction buffer and briefly incubated with BTK kinase (as described above; Invitrogen). The reaction is initiated by the addition of ATP and enzyme substrate, HTRF® KinEASE™-TK Substrate-biotin (Cisbio US, Bedford, Mass.). The composition of the reaction (10 μl) was: 1% v/v DMSO, 10 nM BTK, 60 μM ATP, and 1 μM substrate. After incubation at room temperature for 60 min, the enzyme reaction is stopped by EDTA-containing buffer, which also contains europium-labeled (Eu^3+-Cryptate) anti-phosphotyrosine antibody (Cisbio) and Streptavidin-XL665 (Cisbio). The europium-labeled antibody generates a time-resolved FRET signal with the Stepavidin-XL665, which binds to the biotinylated TK substrate through the streptavidin conjugate when the substrate is phosphorylated. After one hour incubation at room temperature, fluoresence was measured with excitation of 320 nm and dual emission of 615 and 665 nm on an EnVision microplate reader. Signal is expressed in terms of a TR-FRET ratio (665:615).
as §1, §2

[2] = Microsomal stability, positive control assays; assay type: in vitro ADME; conditions: microsomes used in the study
Experimental: Data were also obtained for the stability of Compound 3 when incubated with a microsomal preparation. Drug metabolism can occur, at least in part, in cellular microsomes, and thus the assay assesses the stability of drug to metabolic modification. The concentration of compound 3 was 1 μM in the assay system and the indicated microsomes were present at 0.5 mg total protein per milliliter. The concentration of intact drug was determined at the indicated timepoints using a LC-MS/MS assay. The enzyme activity of the microsomes used in this study were assessed using a positive control, testosterone.

[3] = male, Sprague Dawley, plasma, IV 5 mg/kg, solution

Structure (SMILES)	IC50 [1]	IC50 (BTK)	other results
C=CC(=O)Nc1cccc(-c2nc(Nc3cccc(N4CCOCC4)c3)nc3[nH]ncc23)c1 [SC-1344, N-(3-(6-((3-morpholinophenyl)amino)-1H-pyrazolo[3,4-d]pyrimidin-4-yl)phenyl)acrylamide]			Vss relative to total body water normalized to body weight (0.7 L/kg) (Pharmacokinetics in rat; IV 5 mg/kg): approximately 11 fold; clearance (Pharmacokinetics in rat; [3]): 79.7 mL/min/kg; half-life (Pharmacokinetics in rat; [3]): 2.71 h; AUC(0-t) (Pharmacokinetics in rat; [3]): 1060 ng·h/mL; Vd (Pharmacokinetics in rat; male, Sprague Dawley, plasma, IV 5 mg/kg, solution, read-out: Vss): 7.91 L/kg; bioavailability (Pharmacokinetics in rat; male, Sprague Dawley, plasma, PO 20 mg/kg vs IV 5 mg/kg, AUC0-t and nominal doses used, read-out: F (absolute oral bioavailability)): 2.44%; AUC(0-t) (Pharmacokinetics in rat; male, Sprague Dawley, plasma, PO 20 mg/kg, solution): 104 ng·h/mL; Cmax (Pharmacokinetics in rat; male, Sprague Dawley, plasma, PO 20 mg/kg, solution, read-out: Cmax): 23.1 ng/mL
C=CC(=O)Nc1cccc(-c2nc(Nc3cccc(N4CCOCC4)c3)ncc2Cl)c1 [Compound 2, N-(3-(5-chloro-2-((3-morpholinophenyl)amino)pyrimidin-4-yl)phenyl)acrylamide]	70 nM		
C=CC(=O)Nc1cccc(-c2nc(Nc3cccc(N4CCOCC4)c3)nc3[nH]ccc23)c1 [Compound 8, N-(3-(2-((3-morpholinophenyl)amino)-7H-pyrrolo[2,3-d]pyrimidin-4-yl)phenyl)acrylamide]		> 10000 nM	
C=CC(=O)Nc1cc(-c2nc(Nc3cccc(N4CCOCC4)c3)nc3[nH]nc(Cl)c23)ccc1Cl [Compound 6, N-(2-chloro-5-(3-chloro-6-((3-morpholinophenyl)amino)-1H-pyrazolo[3,4-d]pyrimidin-4-yl)phenyl)acrylamide]	≥ 100000 nM	> 100000 nM	
C=CC(=O)Nc1cccc(-c2nc(Nc3cccc(N4CCNCC4)c3)nc3[nH]ncc23)c1 [Compound 9, N-(3-(6-((3-(piperazin-1-yl)phenyl)amino)-1H-pyrazolo[3,4-d]pyrimidin-4-yl)phenyl)acrylamide]		14 nM	
C=CC(=O)Nc1cccc(-c2nc(Nc3cccc(N4CCOCC4)c3)nc3[nH]nc(Cl)c23)c1 [Compound 5, N-(3-(3-chloro-6-((3-morpholinophenyl)amino)-1H-pyrazolo[3,4-d]pyrimidin-4-yl)phenyl)acrylamide]	96 nM	175 nM	
C=CC(=O)Nc1cccc(-c2nc(Nc3cccc(N4CCNCC4)c3)ncc2Cl)c1 [Compound 10, N-(3-(5-chloro-2-((3-(piperazin-1-yl)phenyl)amino)pyrimidin-4-yl)phenyl)acrylamide]		70 nM	
C[C@]12CC[C@H]3[C@@H](CCC4=CC(=O)CC[C@@]43C)[C@@H]1CC[C@@H]2O [testosterone]			Disappearance of positive control in microsomes [2]: rapid disappearance
C=CC(=O)Nc1cccc(-c2nc(Nc3cccc(N4CCN(C)CC4)c3)ncc2Cl)c1 [Compound 1, N-(3-(5-chloro-2-((3-(4-methylpiperazin-1-yl)phenyl)amino)pyrimidin-4-yl)phenyl)acrylamide]	29 nM and 14 nM	14.2 nM	
C=CC(=O)Nc1cccc(-c2nc(Nc3cccc(N4CCOCC4)c3)nc3[nH]cc(Cl)c23)c1 [Compound 7, N-(3-(5-chloro-2-((3-morpholinophenyl)amino)-7H-pyrrolo[2,3-d]pyrimidin-4-yl)phenyl)acrylamide]	96 nM	175 nM	
C=CC(=O)Nc1cccc(-c2nc(Nc3cccc(N4CCN(C)CC4)c3)nc3[nH]ncc23)c1 [Compound 4, N-(3-(6-((3-(4-methylpiperazin-1-yl)phenyl)amino)-1H-pyrazolo[3,4-d]pyrimidin-4-yl)phenyl)acrylamide]	9 nM	9.1 nM	
